ChEMBL document CHEMBL1155923, “Anti-HBV agents. Part 1: Synthesis of alisol A derivatives: a new class of hepatitis B virus inhibitors” (Bioorg Med Chem Lett, 2008)

Tests used:
[1] = Cytotoxicity against human HepG2.2.15 cells; assay type: cell-based, HepG2 2.2.15
Hepatitis B virus [2] = test: Antiviral activity against hepatitis B virus-infected human HepG2.2.15 cells assessed as inhibition of HBV e antigen secretion; assay type: functional, organism-based; details: HepG2 2.2.15
Hepatitis B virus [3] = test: Antiviral activity against hepatitis B virus-infected human HepG2.2.15 cells assessed as inhibition of HBV surface antigen secretion; assay type: functional, organism-based; details: HepG2 2.2.15
[4] = Selectivity index, ratio of CC50 for human HepG2.2.15 cells to IC50 for HBV e antigen secretion; assay type: functional
[5] = Selectivity index, ratio of CC50 for human HepG2.2.15 cells to IC50 for HBV surface antigen secretion; assay type: functional

Row | SMILES | IC50 (Hepatitis B virus [2]) [µM] | IC50 (Hepatitis B virus [3]) [µM] | CC50 [1] [µM] | Ratio CC50/IC50 [4] | Ratio CC50/IC50 [5]
1 | CCC(=O)O[C@@H](C[C@@H](C)C1=C2C[C@H](OC(=O)CC)[C@H]3[C@@]4(C)CCC(=O)C(C)(C)[C@@H]4CC[C@]3(C)[C@@]2(C)CC1)[C@@H](OC(=O)CC)C(C)(C)O | > 1400 | > 1400 | > 1400 | – | –
2 | CCC(=O)O[C@@H](C[C@@H](C)[C@]12CC[C@@]3(C)[C@@]1(C[C@H](OC(=O)CC)[C@H]1[C@@]4(C)CCC(=O)C(C)(C)[C@@H]4CC[C@@]13C)O2)[C@@H](OC(=O)CC)C(C)(C)O | > 1200 | > 1200 | > 1200 | – | –
3 | C=C(C)[C@H](OC(=O)CC)[C@H](C[C@@H](C)C1=C2C[C@H](OC(=O)CC)[C@H]3[C@@]4(C)CCC(=O)C(C)(C)[C@@H]4CC[C@]3(C)[C@@]2(C)CC1)OC(=O)CC | > 12000 | > 12000 | > 1200 | – | –
4 | CC(=O)O[C@@H](C[C@@H](C)C1=C2C[C@H](OC(C)=O)[C@H]3[C@@]4(C)CCC(=O)C(C)(C)[C@@H]4CC[C@]3(C)[C@@]2(C)CC1)[C@@H](OC(C)=O)C(C)(C)O | > 2000 | > 2000 | > 2000 | – | –
5 | C=C(C)[C@H](OC(C)=O)[C@H](C[C@@H](C)[C@]12CC[C@@]3(C)[C@@]1(C[C@H](OC(C)=O)[C@H]1[C@@]4(C)CCC(=O)C(C)(C)[C@@H]4CC[C@@]13C)O2)OC(C)=O | 28 | 24 | > 2600 | >93 | >108
6 | C[C@H](C[C@H](O)[C@@H](O)C(C)(C)O)[C@]12CC[C@@]3(C)[C@@]1(C[C@H](O)[C@H]1[C@@]4(C)CCC(=O)C(C)(C)[C@@H]4CC[C@@]13C)O2 | 1100 | 45 | 430 | 0.39 | 9.6
7 | C[C@H](C[C@H](O)[C@@H](O)C(C)(C)O)C1=C2C[C@H](O)[C@H]3[C@@]4(C)CCCC(C)(C)[C@@H]4CC[C@]3(C)[C@@]2(C)CC1 | 5100 | 80 | < 80 | <0.016 | <1
8 | CC(=O)O[C@@H](C[C@@H](C)[C@]12CC[C@@]3(C)[C@@]1(C[C@H](OC(C)=O)[C@H]1[C@@]4(C)CCC(=O)C(C)(C)[C@@H]4CC[C@@]13C)O2)[C@@H](OC(C)=O)C(C)(C)O | > 2000 | > 2000 | > 2000 | – | –
9 | C[C@H](C[C@H](OC(=O)/C=C/c1ccccc1)[C@@H](OC(=O)/C=C/c1ccccc1)C(C)(C)O)C1=C2C[C@H](OC(=O)/C=C/c3ccccc3)[C@H]3[C@@]4(C)CCC(=O)C(C)(C)[C@@H]4CC[C@]3(C)[C@@]2(C)CC1 | > 1400 | > 1400 | > 1400 | – | –
10 | Cc1ccc(S(=O)(=O)N/N=C2\CC[C@@]3(C)[C@@H](CC[C@@]4(C)[C@H]3[C@@H](O)CC3=C([C@H](C)C[C@H](O)[C@@H](O)C(C)(C)O)CC[C@@]34C)C2(C)C)cc1 | 29 | 29 | < 29 | <1 | <1
11 | CC(C)C(=O)O[C@@H](C[C@@H](C)[C@]12CC[C@@]3(C)[C@@]1(C[C@H](OC(=O)C(C)C)[C@H]1[C@@]4(C)CCC(=O)C(C)(C)[C@@H]4CC[C@@]13C)O2)[C@@H](OC(=O)C(C)C)C(C)(C)O | > 1900 | > 1900 | > 1900 | – | –
12 | CC(C)C(=O)O[C@@H](C[C@@H](C)C1=C2C[C@H](OC(=O)C(C)C)[C@H]3[C@@]4(C)CCC(=O)C(C)(C)[C@@H]4CC[C@]3(C)[C@@]2(C)CC1)[C@@H](OC(=O)C(C)C)C(C)(C)O | 900 | 1700 | > 2200 | >2.4 | >1.3
13 | C=C(C)[C@H](OC(=O)C(C)C)[C@H](C[C@@H](C)[C@]12CC[C@@]3(C)[C@@]1(C[C@H](OC(=O)C(C)C)[C@H]1[C@@]4(C)CCC(=O)C(C)(C)[C@@H]4CC[C@@]13C)O2)OC(=O)C(C)C | > 1300 | > 1300 | > 1300 | – | –
14 | C[C@H](C[C@H](OC(=O)/C=C/c1ccccc1)[C@@H](OC(=O)/C=C/c1ccccc1)C(C)(C)O)[C@]12CC[C@@]3(C)[C@@]1(C[C@H](OC(=O)/C=C/c1ccccc1)[C@H]1[C@@]4(C)CCC(=O)C(C)(C)[C@@H]4CC[C@@]13C)O2 | 1000 | > 1300 | > 1300 | >1.3 | –

Continued, in another order:

Row | IC50 (Hepatitis B virus [2]) [µM] | IC50 (Hepatitis B virus [3]) [µM] | SMILES | CC50 [1] [µM] | Ratio CC50/IC50 [4] | Ratio CC50/IC50 [5]
15 | > 1500 | > 1500 | C[C@H](C[C@H](OC(=O)c1ccccc1)[C@@H](OC(=O)c1ccccc1)C(C)(C)O)C1=C2C[C@H](OC(=O)c3ccccc3)[C@H]3[C@@]4(C)CCC(=O)C(C)(C)[C@@H]4CC[C@]3(C)[C@@]2(C)CC1 | > 1500 | – | –
16 | > 1600 | > 1600 | C=C(C)[C@H](OC(=O)c1ccccc1)[C@H](C[C@@H](C)[C@]12CC[C@@]3(C)[C@@]1(C[C@H](OC(=O)c1ccccc1)[C@H]1[C@@]4(C)CCC(=O)C(C)(C)[C@@H]4CC[C@@]13C)O2)OC(=O)c1ccccc1 | > 1600 | – | –
17 | > 2300 | > 2300 | C=C(C)[C@H](OC(=O)c1ccccc1)[C@H](C[C@@H](C)C1=C2C[C@H](OC(=O)c3ccccc3)[C@H]3[C@@]4(C)CCC(=O)C(C)(C)[C@@H]4CC[C@]3(C)[C@@]2(C)CC1)OC(=O)c1ccccc1 | > 2300 | – | –
18 | > 2500 | 160 | C=C(C)[C@H](OC(=O)CC)[C@H](C[C@@H](C)[C@]12CC[C@@]3(C)[C@@]1(C[C@H](OC(=O)CC)[C@H]1[C@@]4(C)CCC(=O)C(C)(C)[C@@H]4CC[C@@]13C)O2)OC(=O)CC | > 2500 | – | >16
19 | > 1800 | > 1800 | C=C(C)[C@H](OC(=O)/C=C/c1ccccc1)[C@H](C[C@@H](C)C1=C2C[C@H](OC(=O)/C=C/c3ccccc3)[C@H]3[C@@]4(C)CCC(=O)C(C)(C)[C@@H]4CC[C@]3(C)[C@@]2(C)CC1)OC(=O)/C=C/c1ccccc1 | > 1800 | – | –
20 | > 1600 | > 1600 | C=C(C)[C@H](OC(=O)/C=C/c1ccccc1)[C@H](C[C@@H](C)[C@]12CC[C@@]3(C)[C@@]1(C[C@H](OC(=O)/C=C/c1ccccc1)[C@H]1[C@@]4(C)CCC(=O)C(C)(C)[C@@H]4CC[C@@]13C)O2)OC(=O)/C=C/c1ccccc1 | > 1600 | – | –
21 | 1100 | > 1700 | C[C@H](C[C@H](OC(=O)c1ccccc1)[C@@H](OC(=O)c1ccccc1)C(C)(C)O)[C@]12CC[C@@]3(C)[C@@]1(C[C@H](OC(=O)c1ccccc1)[C@H]1[C@@]4(C)CCC(=O)C(C)(C)[C@@H]4CC[C@@]13C)O2 | > 1700 | >1.5 | –
22 | > 1600 | > 1600 | C=C(C)[C@H](OC(=O)C(C)C)[C@H](C[C@@H](C)C1=C2C[C@H](OC(=O)C(C)C)[C@H]3[C@@]4(C)CCC(=O)C(C)(C)[C@@H]4CC[C@]3(C)[C@@]2(C)CC1)OC(=O)C(C)C | > 1600 | – | –
23 | 29 | 28 | C=C(C)[C@H](OC(C)=O)[C@H](C[C@@H](C)C1=C2C[C@H](OC(C)=O)[C@H]3[C@@]4(C)CCC(=O)C(C)(C)[C@@H]4CC[C@]3(C)[C@@]2(C)CC1)OC(C)=O | 520 | 18 | 18
24 | > 2400 | 39 | C[C@H](C[C@H](O)[C@@H](O)C(C)(C)O)C1=C2C[C@H](O)[C@H]3[C@@]4(C)CCC(=O)C(C)(C)[C@@H]4CC[C@]3(C)[C@@]2(C)CC1 [ALISOL A] | 62 | <0.03 | 1.6
